The values that follow come from paper PMC10265003 (Royal Society Open Science, 2023).

The IC50 is the point on the concentration scale where inhibition reaches its midpoint.

For data set [1], the system named is pepsin. Briefly: Pepsin dissolved in 0.010 M HCl (pH 2.0); peptides dissolved in H2O-TFA 0.05% (v/v). The settings on record: 37°C, up to 3 h.
The test system of another data set is MCF-7 breast cancer line. The data set is classed as cell-based, human. The settings on record: 2 h. As to the method:
(§1) The MTT assay was performed in accordance with previous reports. Briefly, the cells were seeded with a complete medium in 96-well plates at a rate of 10 000 cells and 100 µl per well, and adhesion to the plates was allowed for 24 h. Later, the complete medium was removed, and an incomplete medium was added for synchronization for another 24 h. The cells were then incubated at 37°C for 2 h with 100 µl of peptide at the evaluated concentrations (200, 100, 50, 25, 12.5 and 6.25 µg ml^−1). Next, the peptide was removed from the well and 100 µl of incomplete medium with 10% MTT was added and incubated for 4 h. The medium was replaced with 100 µl of isopropanol, and after 30 min of incubation at 37°C, the absorbance was measured at 575 nm. As a negative control, an incomplete culture medium with 10% MTT was used, and as a positive control, cells without MTT treatment were used. The IC50 value was determined from figure 1 (peptide concentration versus per cent cell viability) using a nonlinear regression model with variable slope and GraphPad Prism 9 statistical analysis software.

Data set [2] deals with HeLa human cervical cancer cell line. In kind it is cell-based. As to conditions: 2 h. Here is the method: as §1
Data set [3] has as its system human primary fibroblasts. The data set is classed as cell-based. As to conditions: for IC50 fibroblasts: 2 h; for selectivity index IC50 fibroblasts/IC50 MCF-7 / selectivity index IC50 fibroblasts/IC50 HeLa: ratio of IC50 values; for selectivity index IC50 fibroblasts/IC50 HeLa: in brackets.
Description: Rink amide resin, Fmoc-Arg(Pbf)-OH, Fmoc-Trp(Boc)-OH, Fmoc-Gln(Trt)-OH, Fmoc-Phe-OH, Fmoc-Lys(Boc)-OH, Fmoc-Leu-OH, Fmoc-Gly-OH, Fmoc-6-Ahx-OH, Fmoc-Lys(Fmoc)-OH, Triton-X, piperidine, N,N-dimethylformamide (DMF), dichloromethane (DCM), dicyclohexylcarbodiimide (DCC), 1-hydroxy-6-chloro-benzotriazole (6-Cl-HOBt), ninhydrin, potassium cyanide (KCN), ethanol, pyridine, phenol, trifluoroacetic acid (TFA), ethyl ether, triisopropylsilane (TIS), ethanedithiol (EDT), acetonitrile (ACN), methanol (MeOH) and solid phase extraction columns Supelco, Trypsin-EDTA solution and pepsin 2500 units mg^−1 were purchased from Sigma-Aldrich (St Louis, MO, USA). The non-natural amino acids diphenylalanine, 1-naphthyl-phenylalanine, 4-benzoyl-phenylalanine, homophenylalanine (hF), 4-(Fmoc-amino) benzoic acid (4-Abz) and 2-(Fmoc-amino) benzoic acid (2-Abz) were obtained from AAPPTec (Louisville, KY, USA). The cell lines MCF-7, HeLa, HEK-293 were purchased from ATCC (Manassas, VA). The primary cell culture of fibroblasts was obtained from the foreskin by the Laboratory of Cellular Physiology of the National University of Colombia, and the fibroblasts were cultured and frozen. Some vials were thawed and cultured for up to seven passes, since no transformation/immortalization was done. Annexin V and Alexa Fluor 488 conjugate was purchased from Invitrogen (Eugene, Oregon). The DMEM culture medium and trypsin were obtained from Sigma-Aldrich (St Louis, MO, USA). Bovine fetal serum was purchased from Gibco (Waltham, MA, USA). Calcium assay kit and Fluorescein CaspGLOW Active Caspase-8 or Caspase-9 Staining Kit were obtained for BD Biosciences (San Diego, CA, USA) and Invitrogen Thermo Fisher Scientific (Waltham, MA, USA), respectively.
as §1, with “The cells were then incubated at 37°C for 2 h with 100 µl of peptide at the evaluated concentrations (200, 100, 50, 25, 12.5 and 6.25 µg ml^−1).” left out

Data set [4] relates to HEK-293 human kidney cell line. In kind it is cell-based. As to conditions: for IC50 HEK-293: 2 h; for selectivity index IC50 HEK-293/IC50 MCF-7 / selectivity index IC50 HEK-293/IC50 HeLa: ratio of IC50 values; for selectivity index IC50 HEK-293/IC50 HeLa: in brackets. Here is the method: as §1, with “The cells were then incubated at 37°C for 2 h with 100 µl of peptide at the evaluated concentrations (200, 100, 50, 25, 12.5 and 6.25 µg ml^−1).” left out

For the next data set, the system named is human erythrocytes. In kind it is cell-based. As to conditions: for IC50 erythrocytes: 2 h; for selectivity index IC50 erythrocytes/IC50 MCF-7 / selectivity index IC50 erythrocytes/IC50 HeLa: ratio of IC50 values; for selectivity index IC50 erythrocytes/IC50 HeLa: in brackets. As to the method: Haemolysis assays were performed in accordance with Cárdenas et al.. The blood was donated by healthy volunteers with blood type O^+. First, 5 ml of peripheral blood in EDTA was centrifuged at 500 r.p.m. for 15 min, and the erythrocytes were separated and washed three times with 0.9% saline solution. Then 100 µl of peptide solution (final concentrations of 200 at 6.2 µg ml^−1) was mixed with 100 µl of erythrocytes (2% haematocrit) and incubated at 37°C for 2 h. It was then centrifuged at 2500 r.p.m. for 5 min and the absorbance of the supernatant was measured at 450 nm. Two controls were used; positive control: distilled water, and negative control: saline solution 0.9%.

The test system of another data set is CD1 mice. Description: Peptide toxicity in vivo model (Irwin test, survival). As to conditions: for observed signs after ip administration (Irwin test): ip 70 mg kg^−1; for survival (%) sc: single sc dose 70 mg kg^−1, n = 3. Here is the method: Experiment 1. CD1 mice male (eight weeks old, weighing 33–35 g) were housed in groups of six animals per cage for each peptide ^26[F] and ^26[1-Nal]; three mice were inoculated by intraperitoneal via ip, and three mice were inoculated by subcutaneous via sc. Mice inoculated via ip or sc with saline solution were used as control. The peptide was dissolved in saline solution (7 mg ml^−1) and the mice were inoculated only one time with 0.33–0.35 ml (dosage 70 mg kg^−1) via ip or sc. Experiment 2. CD1 mice female (n = 4, eight weeks old, weighing 33–35 g) were inoculated only one time with peptide ^26[F] (dosage 140 mg kg^−1) or ^26[1-Nal] (8.8 to 70 mg kg^−1).
To determine the toxicity of peptides ^26[F] and ^26[1-Nal] in vivo model, a preliminary study was carried out in CD1 male mice. The Irwin test was used to evaluate in qualitative manner the effect of peptide administration over motor functions, behaviour, physiology and pharmacological safety in rodents. This test is used as a first approach to study of the adverse effects generated by a pharmaceutical treatment in an in vivo model in preclinical test.

The target of data set [5] is pepsin (Sus scrofa, UniProt P00791). The settings on record: pH 2.
Description: Pepsin was dissolved in 0.010 M HCl (pH 2.0). An aliquot of 50 µl was added to each peptide solution in a 1 : 100 (w/w) ratio. The peptides were dissolved in H2O-TFA 0.05% (v/v). This was incubated at 37°C for 3 h, aliquots were taken at 0 and 3 h, and the samples were heated for 5 min and then cooled at 4°C for the thermal inactivation of pepsin and characterized via HPLC and LC-MS.
Another data set concerns the target trypsin (Sus scrofa, UniProt P00761).
Where [6] appears, read: experiment 1, male CD1 mice, single ip dose 70 mg kg^−1, n = 3, one week of observation.

Positions of bridges follow the written chain, without caps; N, C: chain ends. Non-standard residues stand in square brackets, D forms with d. Residues, ends and D or L forms follow the SMILES beside them. Chains are numbered I, II in the order given. 1Nal = N[C@@H](Cc1cccc2ccccc12)C(=O)O; Ahx = NCCCCCC(=O)O A value given as a limit tells only on which side of the number the result lay.

Sequence of trypsin (P00761 9-231): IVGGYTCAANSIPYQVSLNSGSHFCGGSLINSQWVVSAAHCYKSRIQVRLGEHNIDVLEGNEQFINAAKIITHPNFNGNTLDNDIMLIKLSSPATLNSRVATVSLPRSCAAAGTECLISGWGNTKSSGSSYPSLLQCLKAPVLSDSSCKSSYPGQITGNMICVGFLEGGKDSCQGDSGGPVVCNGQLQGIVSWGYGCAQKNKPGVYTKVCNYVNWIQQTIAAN
Sequence of pepsin (Sus scrofa, UniProt P00791) (P00791 60-385): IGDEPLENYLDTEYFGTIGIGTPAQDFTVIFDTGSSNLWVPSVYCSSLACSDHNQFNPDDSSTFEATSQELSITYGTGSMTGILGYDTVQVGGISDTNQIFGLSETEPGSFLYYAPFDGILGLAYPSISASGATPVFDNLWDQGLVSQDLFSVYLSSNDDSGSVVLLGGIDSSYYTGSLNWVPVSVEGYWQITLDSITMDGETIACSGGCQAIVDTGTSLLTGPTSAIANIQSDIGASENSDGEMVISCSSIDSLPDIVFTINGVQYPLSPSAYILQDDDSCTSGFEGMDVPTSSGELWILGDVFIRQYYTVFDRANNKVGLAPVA
Description for trypsin: Trypsin (20 μg) was dissolved in 450 µl of the buffer supplied by the manufacturer, and 50 µl was added to each peptide solution, maintaining a protease : peptide ratio of 1 : 100 (w/w). The samples were incubated at 37°C for 24 h. Aliquots were taken at 0, 5, 10, 15 and 20 min, the enzymatic reaction was stopped by adding 1 M HCl, and the mixture was analysed via RP-HPLC and LC-MS. Bovine serum albumin (BSA) and bovine lactoferrin (bLF) were used as the positive control, and the negative control was the peptide in buffer solution without trypsin.

For the compound (RRWQWR-1-Nal-KKLG)2-K-Ahx, the not cleaved entry with pepsin [1] is given as “pepsin treatment for 3 h did not induce proteolytic degradation”.
For the compound `CC(C)C[C@H](NC(=O)[C@H](CCCCN)NC(=O)[C@H](CCCCN)NC(=O)[C@H](Cc1cccc2ccccc12)NC(=O)[C@H](CCCNC(=N)N)NC(=O)[C@H](Cc1c[nH]c2ccccc12)NC(=O)[C@H](CCC(N)=O)NC(=O)[C@H](Cc1c[nH]c2ccccc12)NC(=O)[C@H](CCCNC(=N)N)NC(=O)[C@@H](N)CCCNC(=N)N)C(=O)NCC(=O)NCCCC[C@H](NC(=O)CNC(=O)[C@H](CC(C)C)NC(=O)[C@H](CCCCN)NC(=O)[C@H](CCCCN)NC(=O)[C@H](Cc1cccc2ccccc12)NC(=O)[C@H](CCCNC(=N)N)NC(=O)[C@H](Cc1c[nH]c2ccccc12)NC(=O)[C@H](CCC(N)=O)NC(=O)[C@H](Cc1c[nH]c2ccccc12)NC(=O)[C@H](CCCNC(=N)N)NC(=O)[C@@H](N)CCCNC(=N)N)C(=O)NCCCCCC(N)=O` [^26[1-Nal], (RRWQWR-1-Nal-KKLG)2-K-Ahx] (I: H-RRWQWR[1Nal]KKLGK[Ahx]-NH2 / II: H-RRWQWR[1Nal]KKLG; amide I:12-II:C), in the data set on MCF-7 breast cancer line, the IC50 is 14 µM and the “IC50 MCF-7” value is on record as 48(14) µg mL^−1. For the same compound, the “IC50 HeLa” value in data set [2] is on record as 55(16) µg mL^−1. Moreover, in data set [3], the IC50 fibroblasts is reported as 30(9) µg mL^−1, the “selectivity index IC50 fibroblasts/IC50 MCF-7” value is 0.6 and the “selectivity index IC50 fibroblasts/IC50 HeLa” value was 0.5. For the same compound, in data set [4], the “IC50 HEK-293” value is reported as 86(25) µg mL^−1, the “selectivity index IC50 HEK-293/IC50 MCF-7” value amounted to 1.8 and the “selectivity index IC50 HEK-293/IC50 HeLa” value stood at 1.5. Also, in the data set on human erythrocytes, the IC50 erythrocytes is given as >200(>58) µg mL^−1, the “selectivity index IC50 erythrocytes/IC50 MCF-7” value is given as > 4.1 and the “selectivity index IC50 erythrocytes/IC50 HeLa” value was > 3.6. Further, in the data set on CD1 mice (experiment 1, male CD1 mice), the “observed signs after ip administration (Irwin test)” value is “motor function decreased 30 min after peptide administration and abdominal contortions were observed”; the “survival (%) sc” value was determined as 100%. Also, the “survival (%) ip” value with CD1 mice (setting [6]) was 33%. Also, in the data set with CD1 mice (experiment 2, female CD1 mice, single ip dose 8.8 mg kg^−1, n = 3), the “survival (%) ip” value worked out at 100%. The “survival (%) ip” value in the data set with CD1 mice (experiment 2, female CD1 mice, single ip dose 17.5 mg kg^−1, n = 3) was 100%. Besides, the “survival (%) ip” value in the data set with CD1 mice (experiment 2, female CD1 mice, single ip dose 35.0 mg kg^−1, n = 3) was 100%. The “survival (%) ip” value with CD1 mice (experiment 2, female CD1 mice, single ip dose 70.0 mg kg^−1, n = 3) is given as 100%. Also, at pepsin [5], the “proteolytic degradation by pepsin” value is recorded as “unaffected”. At trypsin, the “proteolytic degradation by trypsin, 10 min” value is on record as “less degradation, with the majority being intact dimeric peptide”; the “proteolytic degradation by trypsin, 3 h” value is “three main species, with tR = 3.7, 5.4 min and unaffected peptide tR = 6.4 min”.
As to (RRWQWR-hF-KKLG)2-K-Ahx, in the data set on pepsin [1], the not cleaved entry is “pepsin treatment for 3 h did not induce proteolytic degradation”.
Take `CC(C)C[C@H](NC(=O)[C@H](CCCCN)NC(=O)[C@H](CCCCN)NC(=O)[C@H](Cc1ccccc1)NC(=O)[C@H](CCCNC(=N)N)NC(=O)[C@H](Cc1c[nH]c2ccccc12)NC(=O)[C@H](CCC(N)=O)NC(=O)[C@H](Cc1c[nH]c2ccccc12)NC(=O)[C@H](CCCNC(=N)N)NC(=O)[C@@H](N)CCCNC(=N)N)C(=O)NCC(=O)NCCCC[C@H](NC(=O)CNC(=O)[C@H](CC(C)C)NC(=O)[C@H](CCCCN)NC(=O)[C@H](CCCCN)NC(=O)[C@H](Cc1ccccc1)NC(=O)[C@H](CCCNC(=N)N)NC(=O)[C@H](Cc1c[nH]c2ccccc12)NC(=O)[C@H](CCC(N)=O)NC(=O)[C@H](Cc1c[nH]c2ccccc12)NC(=O)[C@H](CCCNC(=N)N)NC(=O)[C@@H](N)CCCNC(=N)N)C(=O)NCCCCCC(N)=O` [^26[F], (RRWQWR-F-KKLG)2-K-Ahx] (I: H-RRWQWRFKKLGK[Ahx]-NH2 / II: H-RRWQWRFKKLG; amide I:12-II:C): in the data set with MCF-7 breast cancer line, the IC50 stood at 23 µM and the “IC50 MCF-7” value is 79(23) µg mL^−1. Further, in [2], the “IC50 HeLa” value is on record as 24(7) µg mL^−1. In data set [3], the IC50 fibroblasts is listed as 121(35) µg mL^−1, the “selectivity index IC50 fibroblasts/IC50 MCF-7” value came out at 1.5 and the “selectivity index IC50 fibroblasts/IC50 HeLa” value is reported as 5.0. Also, in [4], the “IC50 HEK-293” value is 203(59) µg mL^−1, the “selectivity index IC50 HEK-293/IC50 MCF-7” value stood at 2.6 and the “selectivity index IC50 HEK-293/IC50 HeLa” value is listed as 8.4. In the data set with human erythrocytes, the IC50 erythrocytes is given as >200(>58) µg mL^−1, the “selectivity index IC50 erythrocytes/IC50 MCF-7” value is > 2.5 and the “selectivity index IC50 erythrocytes/IC50 HeLa” value is recorded as > 8.3. Also, in the data set with CD1 mice (experiment 1, male CD1 mice), the “observed signs after ip administration (Irwin test)” value is “motor function decreased 30 min after peptide administration and abdominal contortions were observed”; the “survival (%) sc” value stood at 100%. The “survival (%) ip” value in the data set on CD1 mice (setting [6]) was determined as 100%. Besides, the “survival (%) ip” value in the data set on CD1 mice (experiment 2, female CD1 mice, single ip dose 140.0 mg kg^−1, n = 4) was determined as 0%. The “observed signs after ip administration” value in the data set with CD1 mice (female mice, ip 140 mg kg^−1, after 30 min of treatment) was “decreased motor function, abdominal contractions, excess irrigation, marked ataxia and loss of coordination”. The “proteolytic degradation by pepsin” value on pepsin [5] is recorded as “degraded into two fragments”. Moreover, at trypsin, the “proteolytic degradation by trypsin, 5 min” value is “two fragments were also generated” and the “proteolytic degradation by trypsin, 10 min” value is on record as “disappeared completely”.
